# Experimental data reported in patent publication US11377656B2, “Chemically modified messenger RNA's” (Novartis AG, priority 2016, dated 2022).
# How the values were obtained:
# T7 RNA polymerase = T7 RNA polymerase (Escherichia phage T7, UniProt P00573); assay: In vitro transcription (IVT) of mRNA with modified NTP; type: biochemical; conditions: modified NTP at 100% substitution of the corresponding natural nucleotide; human leptin template; yield as percent of unmodified mRNA yield
# From the text: The modified synthetic mRNA was generated by in vitro transcription (IVT) incorporating the chemically modified nucleotide triphosphate (NTP) at 100% substitution of the corresponding natural nucleotide. The IVT plasmid template used contained a T7 promoter sequence and the human leptin coding sequence (Protein Accession #NP_000221) flanked by a 5′ untranslated region (UTR) of Tobacco Etch Virus with a strong Kozak sequence, and 2 tandem copies of the human beta-globin 3′UTR (Holtkamp S et al. (2006) Blood 108: 4009-4017) followed by a poly-A tail comprising 120 nucleotides in length.
# A typical in vitro transcription reaction was done using the following protocol:
# The IVT reagents in the Table above were mixed and incubated for 1-2 hours at 37° C. The DNA template was then digested with 0.04 U/μL DNase (New England Biolabs), and incubated for 30 minutes at 37° C. The mRNA was precipitated by adding lithium chloride (LiCl) solution (Ambion, Cat. #AM9480) to a final concentration of 2.81 M and incubating for >1 hour at −20° C. The mixture was centrifuged at 20,000×g for 15 minutes at 4° C., and then the supernatant was removed and the pellet washed with 70% ethanol. After centrifugation for 10 minutes, the ethanol was removed and the pellet was resuspended in nuclease-free water. In cases where the mRNA is used for HPLC purification, a second precipitation was done by adding 10% volume of 3 M sodium acetate pH 5.5 and 1 volume of room temperature isopropanol followed by incubation overnight at −20° C. The mRNA was centrifuged, washed and resuspended as described above. mRNA concentration was quantified using the NanoDrop and analyzed using an Agilent 2100 Bioanalyzer to confirm proper size and quality (i.e. no degradation). The modified mRNA can then be stored at −80° C. until capping.
# HEK293 cells = assay: Modified mRNA transfection and in vitro translation (secreted leptin ELISA); type: cell-based; conditions: 1.5 micrograms capped leptin mRNA, Lipofectamine 2000, secreted leptin in medium at 24 h post-transfection
# Method: Prior to transfection, the cells were seeded at a density 5×10^5 cells per well in 6-well plates. The following day, 1.5 micrograms of capped unmodified or chemically modified leptin mRNA was complexed with Lipofectamine 2000 (Life Technologies) and transfected into cells according to the manufacturer's protocol. At 24 h post-transfection, secreted leptin protein concentration in the culture medium was measured by an Enzyme-linked immunosorbent assay (ELISA) using the Human Leptin Quantikine ELISA kit from R&D Systems (Minneapolis, Minn.). Protein expression levels for chemically modified mRNAs are shown as a percent of the unmodified mRNA level.
# T7 RNA polymerase, sequence (P00573 whole entry): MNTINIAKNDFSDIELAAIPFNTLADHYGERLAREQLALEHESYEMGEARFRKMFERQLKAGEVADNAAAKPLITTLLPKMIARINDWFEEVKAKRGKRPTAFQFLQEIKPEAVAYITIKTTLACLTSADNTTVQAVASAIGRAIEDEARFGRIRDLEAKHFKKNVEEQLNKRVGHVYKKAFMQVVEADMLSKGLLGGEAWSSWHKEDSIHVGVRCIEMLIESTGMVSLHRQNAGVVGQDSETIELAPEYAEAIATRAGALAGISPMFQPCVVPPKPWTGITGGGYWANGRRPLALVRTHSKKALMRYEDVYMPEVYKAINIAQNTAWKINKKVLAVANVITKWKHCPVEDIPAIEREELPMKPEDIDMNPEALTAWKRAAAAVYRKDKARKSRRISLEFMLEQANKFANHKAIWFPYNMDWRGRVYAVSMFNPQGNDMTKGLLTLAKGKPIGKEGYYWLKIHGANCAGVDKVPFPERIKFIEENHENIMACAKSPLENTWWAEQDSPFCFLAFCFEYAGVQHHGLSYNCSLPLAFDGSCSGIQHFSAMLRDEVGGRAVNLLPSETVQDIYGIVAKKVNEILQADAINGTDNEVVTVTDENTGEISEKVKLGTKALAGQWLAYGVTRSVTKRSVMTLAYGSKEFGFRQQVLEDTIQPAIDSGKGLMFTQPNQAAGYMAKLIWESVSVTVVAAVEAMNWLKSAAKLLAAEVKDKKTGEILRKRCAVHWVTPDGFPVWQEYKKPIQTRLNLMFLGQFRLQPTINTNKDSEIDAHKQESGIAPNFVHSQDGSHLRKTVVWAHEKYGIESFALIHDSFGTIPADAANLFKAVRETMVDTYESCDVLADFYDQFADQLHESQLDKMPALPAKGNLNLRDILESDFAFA
Substance,In vitro transcription (mRNA quantity relative to unmodified NTP in percentage) (T7 RNA polymerase) [%],In vitro translation (Protein quantity relative to unmodified mRNA in percentage) (HEK293 cells) [%]
5-methoxycarbonyamino-uridine [compound 5],>50,<50
7-methyl-9-deazaguanosine [compound 16],>50,<50
1-methyoxymethyl-pseudouridine [compound 10],>50,>50
1-methoxyethyl-pseudouridine [compound 11],>50,<50
